According to US10654834B2 (Venenum Biodesign, LLC, priority 2016, dated 2020):

What was measured:
human TGR5 receptor = target: T1, human TGR5 receptor (Homo sapiens, UniProt Q8TDU6); experiment: Human TGR5 cAMP production assay (hTGR5-CHO cells, DiscoveRx cAMP XS+ kit); assay type: cell-based; settings: luminescent cAMP assay, read-out: Human TGR5 Lum. cAMP Activity (EC50)
T1 construct: host or cells: CHO-K1 (hTGR5-CHO)
T1 sequence (Q8TDU6 1-330): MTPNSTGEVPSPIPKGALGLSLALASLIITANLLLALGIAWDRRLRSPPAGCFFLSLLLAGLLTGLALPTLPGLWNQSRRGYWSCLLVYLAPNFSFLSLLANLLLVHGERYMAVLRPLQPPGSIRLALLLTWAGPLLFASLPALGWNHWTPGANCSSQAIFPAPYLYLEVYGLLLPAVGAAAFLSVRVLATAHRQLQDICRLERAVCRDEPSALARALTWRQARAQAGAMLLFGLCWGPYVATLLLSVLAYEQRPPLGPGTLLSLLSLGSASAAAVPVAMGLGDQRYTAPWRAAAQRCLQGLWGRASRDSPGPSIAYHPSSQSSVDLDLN
Summary of the method: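 EC50 values come from luminescent enzyme-complementation cAMP detection, read after overnight incubation. Beforehand, hTGR5-expressing CHO-K1 cells with IBMX and anti-cAMP antibody were exposed 1 h at room temperature to serially diluted (half-log) compounds.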

mouse TGR5 receptor = target: T2, mouse TGR5 receptor (Mus musculus, UniProt Q80SS6); experiment: Mouse TGR5 HTRF cAMP production assay (HEK293-EBNA cells, Cisbio cAMP HiRange kit); assay type: cell-based; settings: HEK293-EBNA cells overexpressing mouse TGR5, HTRF cAMP assay
T2 construct: host or cells: HEK293-EBNA (293 c18, ATCC CRL10852)
T2 sequence (Q80SS6 1-329): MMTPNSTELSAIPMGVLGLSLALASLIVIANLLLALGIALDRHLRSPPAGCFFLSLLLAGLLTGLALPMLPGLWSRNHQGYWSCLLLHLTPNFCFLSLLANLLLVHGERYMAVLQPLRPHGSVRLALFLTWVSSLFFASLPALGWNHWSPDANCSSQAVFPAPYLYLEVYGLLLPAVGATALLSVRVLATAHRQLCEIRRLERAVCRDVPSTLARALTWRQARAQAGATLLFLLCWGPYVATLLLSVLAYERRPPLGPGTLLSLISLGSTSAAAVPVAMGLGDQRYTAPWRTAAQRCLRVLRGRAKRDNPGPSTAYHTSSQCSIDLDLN
Summary of the method: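 cAMP accumulation was read by competitive HTRF after 1 h room-temperature compound treatment, with a further 1 h conjugate incubation. Cells were mouse TGR5-overexpressing HEK293-EBNA in serum-free DMEM plus 500 μM IBMX. Compounds ran as 12-point half-log series in duplicate, and EC50 values were reported.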

Row | Structure (SMILES) | EC50 (human TGR5 receptor) [nM] | EC50 (mouse TGR5 receptor) [nM]
1 | N#Cc1ccc(CCNC(=O)[C@@H]2CCCN2c2cc(N3CCC(CCNC(=O)[C@@H](N)CS(=O)(=O)O)CC3)nc(C(F)(F)F)n2)cc1 [Compound 123, (R)-2-amino-3-((2-(1-(6-((S)-2-((4-cyanophenethyl)carbamoyl)pyrrolidin-1-yl)-2-(trifluoromethyl)pyrimidin-4-yl)piperidin-4-yl)ethyl)amino)-3-oxopropane-1-sulfonic acid] | < 100 | < 100
2 | N#CCCN1CCN(c2cc(N3CCC[C@H]3C(=O)NCCc3ccc(C#N)cc3)nc(C(F)(F)F)n2)CC1 [Compound 32] | < 100 | < 100
3 | COc1cc(C(F)(F)F)ccc1CCNC(=O)[C@@H]1CCN1c1cc(N2CCC(CCC(=O)NCCS(=O)(=O)O)CC2)nc(C(F)(F)F)n1 [Compound 259] | < 100 | < 100
4 | N#Cc1ccc(CCNC(=O)[C@@H]2CCCN2c2cc(N3CCC(CCCC(=O)O)CC3)nc(C(F)(F)F)n2)cc1 [Compound 29] | < 100 | < 100
5 | O=C(O)CC[C@@H](NC(=O)CCCC1CCN(c2cc(N3CC[C@H]3C(=O)NCCc3ccc(C(F)(F)F)cc3)nc(C(F)(F)F)n2)CC1)C(=O)O [Compound 294, (R)-2-(4-(1-(2-(trifluoromethyl)-6-((S)-2-((4-(trifluoromethyl)-phenethyl)carbamoyl)azetidin-1-yl)pyrimidin-4-yl)piperidin-4-yl)butanamido)pentanedioic acid] | < 100 | < 100
6 | NS(=O)(=O)CCNC(=O)CCCC1CCN(c2cc(N3CCC[C@H]3C(=O)NCCc3ccc(C(F)(F)F)cc3)nc(C(F)(F)F)n2)CC1 [Compound 59, (S)-1-(6-(4-(4-oxo-4-((2-sulfamoylethyl)amino)butyl)piperidin-1-yl)-2-(trifluoromethyl)pyrimidin-4-yl)-N-(4-(trifluoromethyl)phenethyl)-pyrrolidine-2-carboxamide] | < 100 | < 100
7 | CS(=O)(=O)NCCOCCNC(=O)NCCC1CCN(c2cc(N3CC[C@H]3C(=O)NCCc3ccc(C#N)cc3)nc(C(F)(F)F)n2)CC1 [Compound 292, (S)-N-(4-cyanophenethyl)-1-(6-(4-(2-(3-(2-(2-(methylsulfonylamino)-ethoxy)ethyl)ureido)ethyl)piperidin-1-yl)-2-(trifluoromethyl)pyrimidin-4-yl)azetidine-2-carboxamide] | < 100 | < 100
8 | O=C(O)CCCC1CCN(c2cc(N3CCC[C@@H](C(=O)NCCc4ccc(C(F)(F)F)cc4)C3)nc(C(F)(F)F)n2)CC1 [Compound 330, (R)-4-(1-(2-(trifluoromethyl)-6-(3-((4-(trifluoromethyl)phenethyl)carbamoyl)piperidin-1-yl)pyrimidin-4-yl)piperidin-4-yl)butanoic acid] | < 100 | < 100
9 | N#Cc1ccc(CCNC(=O)[C@@H]2CCCN2c2cc(N3CCC(CCNS(=O)(=O)CCNC(=N)N)CC3)nc(C(F)(F)F)n2)cc1 [Compound 130, (S)-N-(4-cyanophenethyl)-1-(6-(4-(2-(2-guanidinoethylsulfonamido)ethyl)piperidin-1-yl)-2-(trifluoromethyl)pyrimidin-4-yl)pyrrolidine-2-carboxamide] | < 100 | < 100

Next, values leading:

Row | EC50 (human TGR5 receptor) [nM] | EC50 (mouse TGR5 receptor) [nM] | Structure (SMILES)
10 | < 100 | < 100 | N#Cc1ccc(CCNC(=O)[C@@H]2CCN2c2cc(N3CCC(CCNc4c(NCC(=O)O)c(=O)c4=O)CC3)nc(C(F)(F)F)n2)cc1 [Compound 302, (S)-2-((2-((2-(1-(6-(2-((4-cyanophenethyl)carbamoyl)azetidin-1-yl)-2-(trifluoromethyl)pyrimidin-4-yl)piperidin-4-yl)ethyl)amino)-3,4-dioxocyclobut-1-en-1-yl)amino)acetic acid]
11 | < 100 | < 100 | N#Cc1ccc(CCNC(=O)[C@@H]2CCN2c2cc(N3CCC(CCCC(=O)NCP(=O)(O)O)CC3)nc(C(F)(F)F)n2)cc1 [Compound 362, (S)-((4-(1-(6-(2-((4-cyanophenethyl)carbamoyl)azetidin-1-yl)-2-(trifluoromethyl)pyrimidin-4-yl)piperidin-4-yl)butanamido)methyl)phosphonic acid]
12 | < 100 | < 100 | N#Cc1ccc(CCNC(=O)[C@@H]2CCCN2c2cc(N3CCC(CCNc4c(NCP(=O)(O)O)c(=O)c4=O)CC3)nc(C(F)(F)F)n2)cc1 [Compound 369, (S)-(((2-((2-(1-(6-(2-((4-cyanophenethyl)carbamoyl)pyrrolidin-1-yl)-2-(trifluoromethyl)pyrimidin-4-yl)piperidin-4-yl)ethyl)amino)-3,4-dioxocyclobut-1-en-1-yl)amino)methyl)phosphonic acid]
13 | < 100 | < 100 | N#Cc1ccc(CCNC(=O)[C@@H]2CCCN2c2cc(N3CCC(CCCC(=O)N[C@@H](CCCNC(=N)N)C(=O)N[C@@H](CCCNC(=N)N)C(=O)O)CC3)cc(C(F)(F)F)n2)cc1 [Compound 202, (S)-2-((S)-2-(4-(1-(2-((S)-2-((4-cyanophenethyl)carbamoyl)pyrrolidin-1-yl)-6-(trifluoromethyl)pyridin-4-yl)piperidin-4-yl)butanamido)-5-guanidinopentanamido)-5-guanidinopentanoic acid]
14 | < 100 | < 100 | N#Cc1ccc(CCNC(=O)[C@@H]2CCCN2c2cc(N3CCC(CCCC(=O)NCCCS(=O)(=O)O)CC3)nc(C(F)(F)F)n2)cc1 [Compound 63, (S)-3-(4-(1-(6-(2-((4-cyanophenethyl)carbamoyl)pyrrolidin-1-yl)-2-(trifluoromethyl)pyrimidin-4-yl)-piperidin-4-yl)butanamido)propane-1-sulfonic acid]
15 | < 100 | < 100 | N#Cc1ccc(CCNC(=O)[C@@H]2CCCN2c2cc(N3CCC(CCCC(=O)NCCCC[C@H](NC(=N)N)C(=O)O)CC3)nc(C(F)(F)F)n2)cc1 [Compound 129, (S)-6-(4-(1-(6-((S)-2-((4-cyanophenethyl)carbamoyl)pyrrolidin-1-yl)-2-(trifluoromethyl)pyrimidin-4-yl)piperidin-4-yl)butanamido)-2-guanidinohexanoic acid]
16 | < 100 | < 100 | N#Cc1ccc(CCNC(=O)[C@@H]2CCCN2c2cc(-c3ccc(CO)cc3)cc(C(F)(F)F)n2)cc1 [Compound 204, (S)—N-(4-cyanophenethyl)-1-(4-(4-(hydroxymethyl)phenyl)-6-(trifluoromethyl)pyridin-2-yl)pyrrolidine-2-carboxamide]
17 | < 100 | < 100 | O=C(O)CNS(=O)(=O)CCNC(=O)CCCC1CCN(c2cc(N3CCC[C@H]3C(=O)NCCc3ccc(C(F)(F)F)cc3)nc(C(F)(F)F)n2)CC1 [Compound 114, (S)-2-(2-(4-(1-(2-(trifluoromethyl)-6-(2-((4-(trifluoromethyl)phenethyl)-carbamoyl)-pyrrolidin-1-yl)pyrimidin-4-yl)piperidin-4-yl)butanamido)ethyl-sulfonamido)acetic acid]
